In patent publication US10953012B2, “Heterocyclic compounds for the inhibition of pask” (BioEnergenix LLC, priority 2011, dated 2021):
pIC50: −log10 of the molar value.

How the values were obtained:
CK2a2 = CK2a2 (Homo sapiens (Human), UniProt P19784); assay: Biochemical Assay for CK2 Activity; settings: 33P-ATP radiochemical assay; read-out: IC50 CK2 a2
Experimental: Biochemical Assay for CK2 Activity
Purified CK2a2 (NP_001887; human full-length protein, GST tagged) from insect cells (final concentration 1.2 nM) is added to freshly prepared Base Reaction Buffer containing 20 mM Hepes (pH 7.5), 10 mM MgCl2, 1 mM EGTA, 0.02% Brij35, 0.02 mg/ml BSA, 0.1 mM Na3VO4, 2 mM DTT, 1% DMSO and CK2 sub [RRRDDDSDDD] (20 μM final). Test compounds in DMSO are then added and the mixture, followed by delivery of ^33P-ATP (specific activity 0.01 μCi/μl final) to initiate the reaction. The kinase reaction is incubated for 120 min at room temperature. The entire reaction mixture is washed through onto a P81 Phosphocellulose paper and washed three times for 10 minutes in 75 mM phosphoric acid and once in methanol prior to drying and scintillation counting.

PASK [1] = molecular target: PASK (Homo sapiens (Human), UniProt Q96RG2); assay: PAS Kinase FRET Assay; assay type: biochemical; settings: TR-FRET assay; read-out: IC50 Kinase Domain
Chain of PASK (Homo sapiens (Human), UniProt Q96RG2) (Q96RG2 999-1251): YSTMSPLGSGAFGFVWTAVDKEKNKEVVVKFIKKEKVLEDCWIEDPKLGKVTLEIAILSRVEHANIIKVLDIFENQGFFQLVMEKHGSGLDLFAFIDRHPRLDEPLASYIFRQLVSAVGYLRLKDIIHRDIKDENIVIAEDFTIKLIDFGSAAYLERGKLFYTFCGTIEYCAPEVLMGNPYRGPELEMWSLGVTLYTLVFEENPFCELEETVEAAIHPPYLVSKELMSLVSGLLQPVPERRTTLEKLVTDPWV
Outline: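 TR-FRET read-out (665/615 nm) of ULight-peptide phosphorylation by PASK, detected with Eu-labelled anti-phospho antibody. Compound, kinase and substrate/ATP reacted 2 h at 25 °C in the dark in 50 mM HEPES, 10 mM MgCl2, 1 mM EGTA, 0.01% Tween-20, 2 mM DTT. Eleven-point dilution series made at 4× final.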

PASK [2] = molecular target: PASK (UniProt #Q96RG2; residues 879-1323) (Homo sapiens (Human), UniProt Q96RG2); assay: PASK ATP Radiochemical Assay; assay type: biochemical; settings: 33P-ATP radiochemical assay; read-out: IC50 Kinase Domain
Chain of PASK (UniProt #Q96RG2; residues 879-1323) (Homo sapiens (Human), UniProt Q96RG2) (Q96RG2 879-1323): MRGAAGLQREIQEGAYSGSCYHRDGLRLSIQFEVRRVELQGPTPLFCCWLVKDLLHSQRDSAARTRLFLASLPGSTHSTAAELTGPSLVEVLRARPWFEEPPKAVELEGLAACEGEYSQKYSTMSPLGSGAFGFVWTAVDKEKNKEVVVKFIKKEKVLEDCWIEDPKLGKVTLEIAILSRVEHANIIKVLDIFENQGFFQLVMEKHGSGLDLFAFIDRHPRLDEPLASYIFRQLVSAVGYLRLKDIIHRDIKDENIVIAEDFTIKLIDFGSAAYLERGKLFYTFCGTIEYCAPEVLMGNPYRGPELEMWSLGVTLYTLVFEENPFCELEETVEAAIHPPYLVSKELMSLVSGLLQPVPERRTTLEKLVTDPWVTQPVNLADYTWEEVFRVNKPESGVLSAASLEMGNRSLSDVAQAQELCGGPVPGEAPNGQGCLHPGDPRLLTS
Experimental: PASK ATP Radiochemical Assay Purified PASK (UniProt #Q96RG2; human recombinant N-terminal GST tagged construct, residues 879-1323) from insect cells (final concentration 5 nM) is added to freshly prepared Base Reaction Buffer containing 20 mM HEPES (pH 7.5), 10 mM MgCl2, 1 mM EGTA, 0.02% Brij35, 0.02 mg/ml BSA, 0.1 mM Na3VO4, 2 mM DTT, 1% DMSO and Myelin Basic Protein (20 μM final). Test compounds in DMSO are then added and the mixture, followed by delivery of ^33P-ATP (specific activity 0.01 μCi/μl final) to initiate the reaction. The kinase reaction is incubated for 120 min at room temperature. The entire reaction mixture is washed through onto a P81 Phosphocellulose paper and washed three times for 10 minutes in 75 mM phosphoric acid and once in methanol prior to drying and scintillation counting.

Chain of CK2a2 (P19784 whole entry): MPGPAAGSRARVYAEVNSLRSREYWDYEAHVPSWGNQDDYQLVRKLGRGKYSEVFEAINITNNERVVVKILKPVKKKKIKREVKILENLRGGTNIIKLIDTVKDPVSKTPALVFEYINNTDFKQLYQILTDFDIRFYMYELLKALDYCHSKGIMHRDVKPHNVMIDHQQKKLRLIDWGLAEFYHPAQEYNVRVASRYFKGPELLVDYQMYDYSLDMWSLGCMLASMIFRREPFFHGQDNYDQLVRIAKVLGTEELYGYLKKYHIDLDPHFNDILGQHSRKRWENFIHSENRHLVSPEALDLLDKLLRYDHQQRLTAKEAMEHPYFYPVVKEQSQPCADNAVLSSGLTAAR

| pIC50 (CK2a2) | pIC50 (PASK [1]) | pIC50 (PASK [2]) | Compound |
| --- | --- | --- | --- |
| ≥ 5.00 | – | – | COc1ccc(-c2cc(=O)n3ncc(-c4ccc(F)cc4)c3[nH]2)cc1 [Example 53, 3-(4-Fluorophenyl)-5-(4-methoxyphenyl)pyrazolo[1,5-a]pyrimidin-7(4H)-one] |
| ≥ 5.00 | – | – | Cc1nn2c(=O)cc(-c3ccc4c(c3)OCCO4)[nH]c2c1-c1ccccc1 [Example 54, 5-(2,3-Dihydrobenzo[b][1,4]dioxin-6-yl)-2-methyl-3-phenylpyrazolo[1,5-a]pyrimidin-7(4H)-one] |
| ≥ 5.00 | – | – | Cc1nn2c(=O)cc(-c3ccc4c(c3)CCO4)[nH]c2c1-c1ccccc1 [Example 55, 5-(2,3-Dihydrobenzofuran-5-yl)-2-methyl-3-phenylpyrazolo[1,5-a]pyrimidin-7(4H)-one] |
| ≥ 5.00 | – | – | COc1ccc(-c2cc(=O)n3ncc(-c4ccccn4)c3[nH]2)cc1 [Example 56, 5-(4-Methoxyphenyl)-3-(pyridin-2-yl)pyrazolo[1,5-a]pyrimidin-7(4H)-one] |
| ≥ 5.00 | – | – | Cc1nn2c(=O)cc(-c3ccccc3)[nH]c2c1Cc1ccc(Cl)cc1 [Example 61] |
| ≤ 5.00 | – | – | Cc1nn2c(=O)cc(-c3ccc(OC(C)C)cc3)[nH]c2c1Cc1ccc(Cl)cc1 [Example 63, 3-(4-Chlorobenzyl)-5-(4-isopropoxyphenyl)-2-methylpyrazolo[1,5-a]pyrimidin-7(4H)-one] |
| ≤ 5.00 | – | – | COc1cccc(-c2cc(=O)n3nc(C)c(Cc4ccc(Cl)cc4)c3[nH]2)c1 [Example 64, 3-(4-Chlorobenzyl)-5-(3-methoxyphenyl)-2-methylpyrazolo[1,5-a]pyrimidin-7(4H)-one] |
| ≤ 5.00 | – | – | COC(=O)c1ccc(-c2cc(=O)n3nc(C)c(Cc4ccc(Cl)cc4)c3[nH]2)cc1 [Example 65, Methyl 4-(3-(4-chlorobenzyl)-2-methyl-7-oxo-4,7-dihydropyrazolo[1,5-a]pyrimidin-5-yl)benzoate] |
| ≤ 5.00 | – | – | Cc1nn2c(=O)cc(-c3ccc(C(N)=O)cc3)[nH]c2c1Cc1ccc(Cl)cc1 [Example 66, 4-(3-(4-Chlorobenzyl)-2-methyl-7-oxo-4,7-dihydropyrazolo[1,5-a]pyrimidin-5-yl)benzamide] |
| ≤ 5.00 | – | – | Cc1nn2c(=O)cc(-c3ccc(C(F)(F)F)cc3)[nH]c2c1Cc1ccc(Cl)cc1 [Example 67, 3-(4-Chlorobenzyl)-2-methyl-5-(4-(trifluoromethyl)phenyl)pyrazolo[1,5-a]pyrimidin-7(4H)-one] |
| ≤ 5.00 | – | – | COc1ccc(-c2cc(=O)n3nc(C)c(Cc4ccccc4)c3[nH]2)cc1OC [Example 68, 3-Benzyl-5-(3,4-dimethoxyphenyl)-2-methylpyrazolo[1,5-a]pyrimidin-7(4H)-one] |
| ≤ 5.00 | – | – | COc1ccc(-c2cc(=O)n3nc(C)c(Cc4ccc(Cl)cc4)c3[nH]2)cc1OC [Example 69, 3-(4-Chlorobenzyl)-5-(3,4-dimethoxyphenyl)-2-methylpyrazolo[1,5-a]pyrimidin-7(4H)-one] |
| ≤ 5.00 | ≥ 5.00 | – | COc1ccc(-c2cc(=O)n3nc(C)c(Cc4ccccc4Cl)c3[nH]2)cc1 [Example 70, 3-(2-Chlorobenzyl)-5-(4-methoxyphenyl)-2-methylpyrazolo[1,5-a]pyrimidin-7-(4H)-one] |
| ≤ 5.00 | ≥ 5.00 | ≥ 5.00 | CCCc1c(C)nn2c(=O)cc(-c3ccc(OC)cc3)[nH]c12 [Example 71, 5-(4-Methoxyphenyl)-2-methyl-3-propylpyrazolo[1,5-a]pyrimidin-7(4H)-one] |
| ≥ 5.00 | ≥ 5.00 | ≥ 5.00 | COc1ccc(-c2cc(=O)n3ncc(-c4cccnc4)c3[nH]2)cc1 [Example 72, 5-(4-Methoxyphenyl)-3-(pyridin-3-yl)pyrazolo[1,5-a]pyrimidin-7(4H)-one] |
| ≥ 5.00 | ≥ 5.00 | ≥ 5.00 | Cc1nn2c(=O)cc(-c3ccc4ncccc4c3)[nH]c2c1Cc1ccccc1 [Example 73, 3-Benzyl-2-methyl-5-(quinolin-6-yl)pyrazolo[1,5-a]pyrimidin-7(4H)-one] |
| ≥ 5.00 | ≥ 5.00 | ≥ 5.00 | Cc1nn2c(=O)cc(-c3ccc4c(c3)OCO4)[nH]c2c1Cc1cccc(Cl)c1 [Example 75, 3-(3-Chlorobenzyl)-5-(benzo[d][1,3]dioxol-5-yl)-2-methylpyrazolo[1,5-a]pyrimidin-7(4H)-one] |
| ≥ 5.00 | ≥ 5.00 | ≥ 5.00 | Cc1nn2c(=O)cc(-c3ccc4c(c3)OCO4)[nH]c2c1Cc1ccc(Cl)cc1 [Example 76, 3-(4-Chlorobenzyl)-5-(benzo[d][1,3]dioxol-5-yl)-2-methylpyrazolo[1,5-a]pyrimidin-7(4H)-one] |
| ≥ 5.00 | – | ≥ 5.00 | Cc1nn2c(=O)cc(-c3cccnc3)[nH]c2c1-c1ccc(F)cc1 [Example 77, 3-(4-Fluorophenyl)-2-methyl-5-(pyridin-3-yl)pyrazolo[1,5-a]pyrimidin-7(4H)-one] |
| ≥ 5.00 | – | ≥ 5.00 | O=c1cc(-c2ccccn2)[nH]c2c(-c3ccc(F)cc3)cnn12 [Example 79, 3-(4-Fluorophenyl)-5-(pyridin-2-yl)pyrazolo[1,5-a]pyrimidin-7(4H)-one] |
| ≥ 5.00 | ≥ 5.00 | – | O=c1cc(-c2ccc3c(c2)OCCO3)[nH]c2c(-c3ccc(N4CCCCC4)nc3)cnn12 [Example 89, 5-(2,3-Dihydrobenzo[b][1,4]dioxin-6-yl)-3-(6-(piperidin-1-yl)pyridin-3-yl)pyrazolo[1,5-a]pyrimidin-7(4H)-one] |
| ≥ 5.00 | ≥ 5.00 | – | O=c1cc(-c2ccc3c(c2)OCCO3)[nH]c2c(-c3cccc(F)c3)cnn12 [Example 91, 5-(2,3-Dihydrobenzo[b][1,4]dioxin-6-yl)-3-(3-fluorophenyl)pyrazolo[1,5-a]pyrimidin-7(4H)-one] |
| – | ≥ 5.00 | ≥ 5.00 | O=c1cc(-c2cc3ccccc3o2)[nH]c2c(-c3ccccn3)cnn12 [Example 93, 5-(Benzofuran-2-yl)-3-(pyridin-2-yl)pyrazolo[1,5-a]pyrimidin-7(4H)-one] |
| ≥ 5.00 | – | ≥ 5.00 | O=c1cc(-c2ccc3cc[nH]c3c2)[nH]c2c(-c3ccccc3)cnn12 [Example 95, 5-(1H-Indol-6-yl)-3-phenylpyrazolo[1,5-a]pyrimidin-7(4H)-one] |
| ≥ 5.00 | ≥ 5.00 | – | O=c1cc(-c2ccc3c(c2)OCCO3)[nH]c2c(-c3cccnc3)c(O)nn12 [Example 101, 5-(2,3-Dihydrobenzo[b][1,4]dioxin-6-yl)-2-hydroxy-3-(pyridin-3-yl)pyrazolo[1,5-a]pyrimidin-7(4H)-one] |
| ≥ 5.00 | – | – | O=c1cc(-c2cc3ccccc3o2)[nH]c2c(-c3ccccn3)cnn12 [Example 149, 5-(Benzofuran-2-yl)-3-(pyridin-2-yl)pyrazolo[1,5-a]pyrimidin-7(4H)-one] |
| – | ≥ 5.00 | – | COc1c(-c2cc(=O)n3nc(C)c(-c4ccccn4)c3[nH]2)ccc2[nH]nnc12 [Example 248, 5-(4-Methoxy-1H-benzo[d][1,2,3]triazol-5-yl)-2-methyl-3-(pyridin-2-yl)pyrazolo[1,5-a]pyrimidin-7(4H)-one] |
| – | ≥ 5.00 | – | CC(C)Oc1c(-c2cc(=O)n3ncc(-c4ccccn4)c3[nH]2)ccc2c1OCO2 [Example 250, 5-(4-Isopropoxybenzo[d][1,3]dioxol-5-yl)-3-(pyridin-2-yl)pyrazolo[1,5-a]pyrimidin-7(4H)-one] |
| – | ≥ 5.00 | – | Cc1nn2c(=O)cc(-c3ccc4c(c3OC(C)C)OCO4)[nH]c2c1-c1ccccn1 [Example 251, 5-(4-Isopropoxybenzo[d][1,3]dioxol-5-yl)-2-methyl-3-(pyridin-2-yl)pyrazolo[1,5-a]pyrimidin-7(4H)-one] |
| – | ≥ 5.00 | – | O=c1cc(-c2ccc(-c3nnco3)cc2)[nH]c2c(-c3ccccn3)cnn12 [Example 255, 5-(4-(1,3,4-Oxadiazol-2-yl)phenyl)-3-(pyridin-2-yl)pyrazolo[1,5-a]pyrimidin-7(4H)-one] |

| Compound | pIC50 (CK2a2) | pIC50 (PASK [1]) | pIC50 (PASK [2]) |
| --- | --- | --- | --- |
| CNC(=O)Oc1ccc(-c2cc(=O)n3nc(C)c(-c4ccccn4)c3[nH]2)cc1 [Example 252, 4-(2-Methyl-7-oxo-3-(pyridin-2-yl)-4,7-dihydropyrazolo[1,5-a]pyrimidin-5-yl)phenyl methylcarbamate] | – | ≥ 5.00 | – |
| CNC(=O)Oc1ccc(-c2cc(=O)n3ncc(-c4ccccn4)c3[nH]2)cc1 [Example 253, 4-(7-Oxo-3-(pyridin-2-yl)-4,7-dihydropyrazolo[1,5-a]pyrimidin-5-yl)phenyl methylcarbamate] | – | ≥ 5.00 | – |
